Data taken from patent US20240415914A1, “Water Dispersible Cannabinoid Compositions” (priority 2021, published 2024).

Test: Stability of cannabinoid and Vitamin E components of Beverage 1 (AB White) stored at 8° C. and 21-25° C., LCMSMS over 570 days
Type: physicochemical
Conditions: for Stability in AB White, 8° C. (content by LCMSMS): beverage stored at 8° C.; for Stability in AB White, 21-25° C. (content by LCMSMS): beverage stored at 21-25° C.
Method: The LCMSMS was calibrated for 0-1000 ng/ml cannabinoids with the same resin material used in the preparation of the concentrates. At each time period, 100 ml of beverage was diluted with 10 ml of methanol and injected into the LCMSMS for analysis.

CCCCCc1cc(O)c(C/C=C(\C)CCC=C(C)C)c(O)c1 [CBG, cannabigerol]
Stability in AB White, 8° C. (content by LCMSMS) (day 0): 4.87 µg/mL | Stability in AB White, 8° C. (content by LCMSMS) (day 1): 4.74 µg/mL | Stability in AB White, 8° C. (content by LCMSMS) (day 2): 4.91 µg/mL | Stability in AB White, 8° C. (content by LCMSMS) (day 3): 4.74 µg/mL | Stability in AB White, 8° C. (content by LCMSMS) (day 5): 4.88 µg/mL | Stability in AB White, 8° C. (content by LCMSMS) (day 8): 4.86 µg/mL | Stability in AB White, 8° C. (content by LCMSMS) (day 9): 4.89 µg/mL | Stability in AB White, 8° C. (content by LCMSMS) (day 10): 4.77 µg/mL | Stability in AB White, 8° C. (content by LCMSMS) (day 11): 4.87 µg/mL | Stability in AB White, 8° C. (content by LCMSMS) (day 12): 4.87 µg/mL | Stability in AB White, 8° C. (content by LCMSMS) (day 15): 4.81 µg/mL | Stability in AB White, 8° C. (content by LCMSMS) (day 16): 4.84 µg/mL | Stability in AB White, 8° C. (content by LCMSMS) (day 17): 4.78 µg/mL | Stability in AB White, 8° C. (content by LCMSMS) (day 18): 4.81 µg/mL | Stability in AB White, 8° C. (content by LCMSMS) (day 19): 4.83 µg/mL | Stability in AB White, 8° C. (content by LCMSMS) (day 22): 4.75 µg/mL | Stability in AB White, 8° C. (content by LCMSMS) (day 23): 4.89 µg/mL | Stability in AB White, 8° C. (content by LCMSMS) (day 24): 4.83 µg/mL | Stability in AB White, 8° C. (content by LCMSMS) (day 25): 4.89 µg/mL | Stability in AB White, 8° C. (content by LCMSMS) (day 26): 4.77 µg/mL | Stability in AB White, 8° C. (content by LCMSMS) (day 29): 4.91 µg/mL | Stability in AB White, 8° C. (content by LCMSMS) (day 30): 4.79 µg/mL | Stability in AB White, 8° C. (content by LCMSMS) (day 60): 4.68 µg/mL | Stability in AB White, 8° C. (content by LCMSMS) (day 90): 4.66 µg/mL | Stability in AB White, 8° C. (content by LCMSMS) (day 120): 4.89 µg/mL | Stability in AB White, 8° C. (content by LCMSMS) (day 150): 4.83 µg/mL | Stability in AB White, 8° C. (content by LCMSMS) (day 180): 4.71 µg/mL | Stability in AB White, 8° C. (content by LCMSMS) (day 210): 4.73 µg/mL | Stability in AB White, 8° C. (content by LCMSMS) (day 240): 4.69 µg/mL | Stability in AB White, 8° C. (content by LCMSMS) (day 270): 4.72 µg/mL | Stability in AB White, 8° C. (content by LCMSMS) (day 300): 4.74 µg/mL | Stability in AB White, 8° C. (content by LCMSMS) (day 330): 4.69 µg/mL | Stability in AB White, 8° C. (content by LCMSMS) (day 360): 4.66 µg/mL | Stability in AB White, 8° C. (content by LCMSMS) (day 390): 4.68 µg/mL | Stability in AB White, 8° C. (content by LCMSMS) (day 420): 4.66 µg/mL | Stability in AB White, 8° C. (content by LCMSMS) (day 450): 4.68 µg/mL | Stability in AB White, 8° C. (content by LCMSMS) (day 480): 4.64 µg/mL | Stability in AB White, 8° C. (content by LCMSMS) (day 510): 4.49 µg/mL | Stability in AB White, 8° C. (content by LCMSMS) (day 540): 4.53 µg/mL | Stability in AB White, 8° C. (content by LCMSMS) (day 570): 4.46 µg/mL | Stability in AB White, 21-25° C. (content by LCMSMS) (day 0): 4.87 µg/mL | Stability in AB White, 21-25° C. (content by LCMSMS) (day 1): 4.73 µg/mL | Stability in AB White, 21-25° C. (content by LCMSMS) (day 2): 4.72 µg/mL | Stability in AB White, 21-25° C. (content by LCMSMS) (day 3): 4.75 µg/mL | Stability in AB White, 21-25° C. (content by LCMSMS) (day 5): 4.89 µg/mL | Stability in AB White, 21-25° C. (content by LCMSMS) (day 8): 4.90 µg/mL | Stability in AB White, 21-25° C. (content by LCMSMS) (day 9): 4.79 µg/mL | Stability in AB White, 21-25° C. (content by LCMSMS) (day 10): 4.68 µg/mL | Stability in AB White, 21-25° C. (content by LCMSMS) (day 11): 4.74 µg/mL | Stability in AB White, 21-25° C. (content by LCMSMS) (day 12): 4.88 µg/mL | Stability in AB White, 21-25° C. (content by LCMSMS) (day 15): 4.87 µg/mL | Stability in AB White, 21-25° C. (content by LCMSMS) (day 16): 4.80 µg/mL | Stability in AB White, 21-25° C. (content by LCMSMS) (day 17): 4.80 µg/mL | Stability in AB White, 21-25° C. (content by LCMSMS) (day 18): 4.72 µg/mL | Stability in AB White, 21-25° C. (content by LCMSMS) (day 19): 4.68 µg/mL | Stability in AB White, 21-25° C. (content by LCMSMS) (day 22): 4.68 µg/mL | Stability in AB White, 21-25° C. (content by LCMSMS) (day 23): 4.85 µg/mL | Stability in AB White, 21-25° C. (content by LCMSMS) (day 24): 4.80 µg/mL | Stability in AB White, 21-25° C. (content by LCMSMS) (day 25): 4.86 µg/mL | Stability in AB White, 21-25° C. (content by LCMSMS) (day 26): 4.78 µg/mL | Stability in AB White, 21-25° C. (content by LCMSMS) (day 29): 4.76 µg/mL | Stability in AB White, 21-25° C. (content by LCMSMS) (day 30): 4.73 µg/mL | Stability in AB White, 21-25° C. (content by LCMSMS) (day 60): 4.83 µg/mL | Stability in AB White, 21-25° C. (content by LCMSMS) (day 90): 4.65 µg/mL | Stability in AB White, 21-25° C. (content by LCMSMS) (day 120): 4.59 µg/mL | Stability in AB White, 21-25° C. (content by LCMSMS) (day 150): 4.63 µg/mL | Stability in AB White, 21-25° C. (content by LCMSMS) (day 180): 4.79 µg/mL | Stability in AB White, 21-25° C. (content by LCMSMS) (day 210): 4.75 µg/mL | Stability in AB White, 21-25° C. (content by LCMSMS) (day 240): 4.79 µg/mL | Stability in AB White, 21-25° C. (content by LCMSMS) (day 270): 4.62 µg/mL | Stability in AB White, 21-25° C. (content by LCMSMS) (day 300): 4.67 µg/mL | Stability in AB White, 21-25° C. (content by LCMSMS) (day 330): 4.71 µg/mL | Stability in AB White, 21-25° C. (content by LCMSMS) (day 360): 4.69 µg/mL | Stability in AB White, 21-25° C. (content by LCMSMS) (day 390): 4.70 µg/mL | Stability in AB White, 21-25° C. (content by LCMSMS) (day 420): 4.72 µg/mL | Stability in AB White, 21-25° C. (content by LCMSMS) (day 450): 4.73 µg/mL | Stability in AB White, 21-25° C. (content by LCMSMS) (day 480): 4.46 µg/mL | Stability in AB White, 21-25° C. (content by LCMSMS) (day 510): 4.51 µg/mL | Stability in AB White, 21-25° C. (content by LCMSMS) (day 540): 4.48 µg/mL | Stability in AB White, 21-25° C. (content by LCMSMS) (day 570): 4.47 µg/mL
